# Reference: US9174966B2, “Crystalline forms of 6-(1H-imidazol-1-yl)-2-phenylquinazoline” (ROTTAPHARM S.P.A., priority 2009, dated 2015)
# Values joined by “and” are separate entries in the source; they are usually repeats but may differ in a detail not shown here. Equal values may be shown once. “Also recorded” adds a separate entry of the source. Where a name gives a salt, the structure may show the parent alone. Read-outs that look alike come from different tables or passages of the source.
# Assays:
# [1] = Thermal stability of the crystalline form (XRPD)
# [2] = Solubility in aqueous solution of NaCl 0.9% (UV absorbance at 260 nm); type: physicochemical; details: aqueous NaCl 0.9%, stirred 500 rpm, 24 hours at 37° C.; for solubility at 24 h: aqueous solution of NaCl 0.9%, 37 °C, saline or isotonic, thermodynamic from solid
# Protocol: The solubility is 0.6 mg/mL. […]
# The sample of 6-(1H-imidazol-1-yl)-2-phenylquinazoline phosphate, form A, is stirred in an aqueous solution of NaCl 0.9%, at 500 rpm, so as to obtain a suspension (50 mg in 2 mL), for 24 hours at 37° C.
# (§1) The sample of 6-(1H-imidazol-1-yl)-2-phenylquinazoline phosphate, form A, is stirred in an aqueous solution of NaCl 0.9%, at 500 rpm, so as to obtain a suspension (70 mg in 2 mL), for 24 hours at 37° C. […] The dissolution rate is measured by adding 2 mg of product to 40 mL of water at 37° C., stirring at 500 rpm, and measuring the absorbance at 260 nm every 0.05 min; the dissolution rate is found to be 1.9×10^−4 gr/min.
# [3] = Dissolution rate in water at 37° C.; type: physicochemical; details: 2 mg of product in 40 mL of water at 37° C., 500 rpm, absorbance at 260 nm
# Protocol: as §1
# [4] = Pharmacokinetics in rats, oral versus intravenous administration; type: in vivo; details: for bioavailability: read-out: F (bioavailability); for half-life: read-out: T½
# Protocol: The samples are analysed by HPLC-MS to determine the content of 6-(1H-imidazol-1-yl)-2-phenylquinazoline, using diphenylhydramine hydrochloride as internal standard. The pharmacokinetic parameters measured are summarized hereinbelow: it is noted that, despite the fact that the polymorph under consideration is of low solubility, the bioavailability (F %) is entirely acceptable.
# The pharmacokinetic parameters measured are summarized hereinbelow: it is noted that the salt under consideration has optimum bioavailability (F %). […]
# [5] = Stability to mechanical stress (milling, XRPD); type: physicochemical; details: Retsch MM 200 mill, 50 Hz, 5 min.
# Protocol: 6-(1H-Imidazol-1-yl)-2-phenylquinazoline, polymorph A, was subjected to milling by means of a Retsch MM 200 mill, at 50 Hz for 5 min., and the product thus obtained was analysed by XRPD.
# 6-(1H-Imidazol-1-yl)-2-phenylquinazoline succinate form A, was subjected to milling by means of a Retsch MM 200 mill, at 50 Hz for 5 min., and the product thus obtained was subjected to XRPD analysis.
# 6-(1H-Imidazol-1-yl)-2-phenylquinazoline L-tartrate dihydrate, form A, was subjected to milling by means of a Retsch MM 200 mill, at 50 Hz for 5 min., and the product thus obtained was subjected to XRPD analysis.
# 6-(1H-Imidazol-1-yl)-2-phenylquinazoline maleate, form A, was subjected to milling by means of a Retsch MM 200 mill, at 50 Hz for 5 min., and the product thus obtained was subjected to XRPD analysis.
# [6] = Stability to moisture, DVS analysis (Differential Vapour Sorption); type: physicochemical; details: 25° C.; for hygroscopicity (DVS): hydration/dehydration cycle
# Protocol: The sample placed on a microbalance is subjected, in a chamber of controlled humidity, at 25° C., to a cycle of hydration (increasing humidity, red line) and of dehydration (decreasing humidity, blue line).
# The sample of 6-(1H-imidazol-1-yl)-2-phenylquinazoline succinate form A was subjected to DVS analysis (as described in Example 32).
# The sample of 6-(1H-imidazol-1-yl)-2-phenylquinazoline L-tartrate dihydrate, form A, was subjected to DVS analysis.
# The sample of 6-(1H-imidazol-1-yl)-2-phenylquinazoline maleate, form A, was subjected to DVS analysis.
# [7] = Hygroscopicity noted for the isolated crystalline product; type: physicochemical; details: as noted in the preparation example
# [8] = 90° C., 12 hours (or at least 12 hours), XRPD
# [9] = IV, 5 mg/kg, dihydrochloride monohydrate
# [10] = OS (oral), 10 mg/Kg, dihydrochloride monohydrate
# [11] = rat, blood, OS 10 mg/Kg compared with IV 5 mg/kg
# [12] = rat, blood, iv, 5 mg/kg, IV, 5 mg/kg
# [13] = rat, blood, po, 10 mg/kg, OS (oral), 10 mg/Kg, read-out: Tmax (converted)
# [14] = rat, blood, po, 10 mg/kg, OS (oral), 10 mg/Kg
# [15] = heating at/to 90° C., time not stated, succinate
compound,measurement,setting,value
6-(1H-imidazol-1-yl)-2-phenylquinazoline maleate hemihydrate [maleate salt form B],thermal stability of crystalline form,"[1]; 40° C., RH 85%, 7 days, XRPD",partially converted into form A
same,thermal stability of crystalline form,[1]; [8],converted into form A
"c1ccc(-c2ncc3cc(-n4ccnc4)ccc3n2)cc1 [dihydrochloride monohydrate form A, 6-(1H-imidazol-1-yl)-2-phenylquinazoline dihydrochloride monohydrate]",solubility at 24 h,[2],138000 µg/mL
same,dissolution rate,[3],2.17×10^−3 gr/min
same,CL,[4]; [9],0.024 L/kg/min
same,T½,[4]; [9],46.6 min
same,V,[4]; [9],1.26 L/kg
same,F (bioavailability),"[4]; OS 10 mg/Kg compared with IV 5 mg/kg, dihydrochloride monohydrate",90.0%
same,CL,[4]; [10],0.018 L/kg/min
same,Tmax,[4]; [10],1.33 h
same,T½,[4]; [10],59.9 min
same,V,[4]; [10],2.96 L/kg
same,stability to milling,[5]; dihydrochloride monohydrate,"No increase in the amount of amorphous product present relative to the reference example, as well as no foreign signals attributable to other forms"
same,hygroscopicity (DVS),[6],"in the range 30-80% relative humidity (RH), the product is not particularly hygroscopic"
same,water content (DVS),[6]; range 30-80% relative humidity,about 5%
same,hygroscopicity of the isolated product,[7],non-hygroscopic
same,thermal stability of crystalline form,"[1]; 40° C., RH 85%, 7 days, XRPD, dihydrochloride monohydrate",stable
same,time after which complete conversion into the monohydrochloride is noted,"[1]; 90° C., VT-XRPD",48 h
same,time after which formation of the monohydrochloride is noted,"[1]; 90° C., VT-XRPD",36 h
same,thermal stability of crystalline form,"[1]; 90° C., several hours",stable
"c1ccc(-c2ncc3cc(-n4ccnc4)ccc3n2)cc1 [form B, 6-(1H-imidazol-1-yl)-2-phenylquinazoline monohydrate]",thermal stability of crystalline form,"[1]; 40° C., RH 85%, 7 days, XRPD, monohydrate",appearance of the signals of form E
same,behaviour in variable temperature experiment (VT-XRPD),[1]; heated to between 40° C. and 180° C.,conversion into form E
"c1ccc(-c2ncc3cc(-n4ccnc4)ccc3n2)cc1 [form C, 6-(1H-imidazol-1-yl)-2-phenylquinazoline monohydrate]",thermal stability of crystalline form,"[1]; 40° C., RH 85%, 5 days (at least 5 days for polymorph A), XRPD",stable
same,thermal stability of crystalline form,"[1]; 90° C., 3 hours, XRPD, monohydrate",complete conversion into form E
"c1ccc(-c2ncc3cc(-n4ccnc4)ccc3n2)cc1 [form D, 6-(1H-imidazol-1-yl)-2-phenylquinazoline]",thermal stability of crystalline form,"[1]; 40° C., RH 85%, 7 days, XRPD",stable
same,thermal stability of crystalline form,"[1]; 90° C., 3 hours, XRPD",stable
"O=C(O)/C=C/C(=O)O.c1ccc(-c2ncc3cc(-n4ccnc4)ccc3n2)cc1 [fumarate form A, 6-(1H-imidazol-1-yl)-2-phenylquinazoline fumarate]",solubility at 24 h,[2],1200 µg/mL
same,dissolution rate,[3],2.67×10^−5 gr/min
same,hygroscopicity of the isolated product,[7],non-hygroscopic
same,thermal stability of crystalline form,"[1]; 40° C., RH 85%, 7 days, XRPD",stable
"Cl.c1ccc(-c2ncc3cc(-n4ccnc4)ccc3n2)cc1 [hydrochloride salt form B, 6-(1H-imidazol-1-yl)-2-phenylquinazoline hydrochloride]",hygroscopicity of the isolated product,[7],hygroscopic
"O=C(O)/C=C\C(=O)O.c1ccc(-c2ncc3cc(-n4ccnc4)ccc3n2)cc1 [maleate form A, 6-(1H-imidazol-1-yl)-2-phenylquinazoline maleate]",solubility at 24 h,[2],7900 µg/mL
same,dissolution rate,[3],1.45×10^−3 gr/min
same,V,"[4]; IV, 5 mg/kg",1.3 L/kg
same,CL,"[4]; OS (oral), 10 mg/Kg",0.016 L/kg/min
same,V,"[4]; OS (oral), 10 mg/Kg",1.90 L/kg
same,bioavailability,[4]; [11],100%
same,clearance,"[4]; rat, blood, iv, 5 mg/kg",22 mL/min/kg
same,half-life,[4]; [12],45.6 min
same,Tmax,[4]; [13],1 h
same,half-life,[4]; [14],45 min
same,stability to milling,[5],"has not undergone any changes of crystalline form, but a slight increase in the presence of amorphous product is revealed, which recrystallizes within a few hours on standing"
same,hygroscopicity (DVS),[6]; maleate,not hygroscopic in the range 0-85% RH; also recorded: not particularly hygroscopic even at values of greater than 85% RH
same,hygroscopicity of the isolated product,[7],non-hygroscopic
same,thermal stability of crystalline form,"[1]; 40° C., 70% RH, 7 days, XRPD",stable
same,thermal stability of crystalline form,[1]; [8],stable
"O=P(O)(O)O.c1ccc(-c2ncc3cc(-n4ccnc4)ccc3n2)cc1 [phosphate, form A, 6-(1H-imidazol-1-yl)-2-phenylquinazoline phosphate]",solubility,[2]; phosphate,3.6 mg/mL
same,solubility at 24 h,[2],6200 µg/mL
same,dissolution rate,[3]; phosphate,1.73×10^−4 gr/min and 1.9×10^−4 gr/min
"O=C(O)CCC(=O)O.c1ccc(-c2ncc3cc(-n4ccnc4)ccc3n2)cc1 [succinate form A, 6-(1H-imidazol-1-yl)-2-phenylquinazoline succinate]",solubility at 24 h,[2],600 µg/mL
same,dissolution rate,[3],3.53×10^−5 gr/min
same,V,"[4]; IV, 5 mg/kg",1.1 L/kg
same,CL,"[4]; OS (oral), 10 mg/Kg",0.019 L/kg/min
same,V,"[4]; OS (oral), 10 mg/Kg",3.74 L/kg
same,bioavailability,[4]; [11],65%
same,clearance,"[4]; rat, blood, iv, 5 mg/kg",18 mL/min/kg
same,half-life,[4]; [12],48.9 min
same,Tmax,[4]; [13],1 h
same,half-life,[4]; [14],48.6 min
same,stability to milling,[5],has not undergone any changes of crystalline form and no presence of amorphous product is revealed
same,hygroscopicity (DVS),[6]; succinate,not entirely hygroscopic; also recorded: only at about 90% RH is there a significant minimum absorption of water
same,hygroscopicity of the isolated product,[7]; succinate,non-hygroscopic
same,thermal stability of crystalline form,"[1]; 40° C., RH 85%, 7 days, XRPD",stable
same,thermal stability of crystalline form,[1]; [8],stable
"O=C(O)CCC(=O)O.c1ccc(-c2ncc3cc(-n4ccnc4)ccc3n2)cc1 [succinate salt form B, 6-(1H-imidazol-1-yl)-2-phenylquinazoline succinate]",hygroscopicity of the isolated product,[7]; succinate,non-hygroscopic
same,thermal stability of crystalline form,[1]; [15],converted into form A
"O=C(O)CCC(=O)O.c1ccc(-c2ncc3cc(-n4ccnc4)ccc3n2)cc1 [succinate salt form C, 6-(1H-imidazol-1-yl)-2-phenylquinazoline succinate]",hygroscopicity of the isolated product,[7]; succinate,not hygroscopic
same,thermal stability of crystalline form,[1]; [15],stable
"O.O.O.O.O=C(O)C(O)C(O)C(=O)O.c1ccc(-c2ncc3cc(-n4ccnc4)ccc3n2)cc1 [tartrate salt form B, 6-(1H-imidazol-1-yl)-2-phenylquinazoline (L)-tartrate tetrahydrate]",thermal stability of crystalline form,"[1]; 40° C., RH 85%, 7 days, XRPD",stable
same,thermal stability of crystalline form,[1]; [8],gives rise to the amorphous form
"O.O=C(O)C(O)C(O)C(=O)O.c1ccc(-c2ncc3cc(-n4ccnc4)ccc3n2)cc1 [tartrate salt form C, 6-(1H-imidazol-1-yl)-2-phenylquinazoline (L)-tartrate monohydrate]",thermal stability of crystalline form,"[1]; 40° C., RH 85%, 7 days, XRPD",stable
same,thermal stability of crystalline form,[1]; [8],stable
"O=C(O)C(O)C(O)C(=O)O.c1ccc(-c2ncc3cc(-n4ccnc4)ccc3n2)cc1 [tartrate salt form D, 6-(1H-imidazol-1-yl)-2-phenylquinazoline (L)-tartrate]",thermal stability of crystalline form,"[1]; 40° C., RH 85%, 7 days, XRPD",gives an XRPD corresponding to form A
same,thermal stability of crystalline form,[1]; [8],an amorphous product
